Experimental data reported in patent US12201626B2, “Bifunctional compositions for the treatment of cancer” (ARMACEUTICA, INC., priority 2018, dated 2025).
Where two headings read alike, the source gives them in different places.

How the values were obtained:
CEM cell line = test: Differential Nuclear Staining (DNS) cytotoxicity assay; format: cell-based, human
From the text: (§1) In this study, 19 human cell lines were utilized: seven breast human cancer; MDA-MB-468, MCF-7, T47D, HCC1419, HCC70, MDA-MB-231 (triple negative) and its lung metastatic (LM) derivative MDA-MB-231 LM2; four human leukemia/lymphoma cells, HL-60, Ramos, Jurkat and CEM, three human ovarian cancer, Ovcar 8, Ovcar 5 and Ovcar 3, one lung cancer, one melanoma and one pancreatic cell line, A549, A375, Panc-1 respectively. Furthermore, for selectivity/comparative purposes, the cell lines from the non-cancerous origin, MCF-10A, HS-27 were also included. […] The adherent cells, growing in the logarithmic growth phase at a 60-75% confluence, were detached by utilizing a HyQtase enzyme (Thermo Fisher Scientific Inc.), counted and seeded in 96-well plates at 10,000 cells density in 100 μL of culture medium per well. […]
(§2) To analyze the potential cytotoxic activity of PND, the Differential Nuclear Staining (DNS) assay, which was validated for high-throughput screening (HTS) using live-cell bio-imaging was utilized. […] Montages of 2 by 2 images were captured directly from each individual well of the culture plates by using a multi-well plate reader IN Cell 2000 analyzer, an HTS and high-content analysis (HCA) system (GE Healthcare Life Sciences, Pittsburgh, PA). […] Each experimental data point, as well as controls, were assessed in triplicates. […]

[1] = Differential Nuclear Staining (DNS) cytotoxicity assay, panel; format: cell-based; conditions: human, read-out: selective cytotoxicity index (SCI)
From the text: as §1, with “included. The culture media used for MDA-MB-231, MDA-MB-231 LM2, MDA-MB-468, MCF-7, A549, A375, Panc-1, and HS-27 was DMEM (Hyclone, Logan UT), whereas for T47D, HCC-1419, HCC-70, HL-60, Ramos, Jurkat, CEM, Ovcar 8 and Ovcar 5 was RPMI-1640 (Hyclone, Logan UT). Consistently, both DMEM and RPMI culture media was supplemented with 10% heat-inactivated fetal bovine serum (FBS: Hyclone), 100 U/ml penicillin and 100 μg/ml streptomycin (Thermo Fisher Scientific Inc., Rockford, IL).” for “included.”
as §2
(§3) The selective cytotoxicity index (SCI) denotes the capability of a given experimental compound to kill cancer cells more efficiently while inflicting minimal toxicity to non-cancerous origin cells. Thus, the SCI for PND was calculated as follow: SCI=CC50 of non-cancerous cells/CC50 of cancer cells.

[2] = test system: panel of human cancer cell lines; test: as above; format: cell-based; conditions: Homo sapiens; 72 h, DNS assay; read-out: CC50 over all cancer cell lines tested
From the text: as §1, with “included. The culture media used for MDA-MB-231, MDA-MB-231 LM2, MDA-MB-468, MCF-7, A549, A375, Panc-1, and HS-27 was DMEM (Hyclone, Logan UT), whereas for T47D, HCC-1419, HCC-70, HL-60, Ramos, Jurkat, CEM, Ovcar 8 and Ovcar 5 was RPMI-1640 (Hyclone, Logan UT). Consistently, both DMEM and RPMI culture media was supplemented with 10% heat-inactivated fetal bovine serum (FBS: Hyclone), 100 U/ml penicillin and 100 μg/ml streptomycin (Thermo Fisher Scientific Inc., Rockford, IL).” for “included.”
as §2, §3

[3] = test system: malignancy that was metastatic or unresectable; test: Open-label study of oral PND in terminally-ill canine cancer patients; format: in vivo
From the text: Due to ethical concerns of treating terminally-ill dogs, there was no placebo group.
The secondary outcomes were: anti-tumor activity, malignancy-associated symptom relief, and the safety and tolerability of PND.
Case 1, Mast cell carcinoma: Dog (Golden Retriever), female, 6 years old, 28.7 kg. Cancer was confirmed by histopathology report. In mid-May 2019 the administration of oral PND to the dog began after which patient received no other cancer medication. Veterinarian expected survival length of between 4 and 6 months at the time of study entry. Patient received 23 mg/kg/day PND (325 mg in the morning and 325 mg in the evening).
Case 2, Osteosarcoma: Dog (Saint Bernard), male, 5 years old, 49.7 kg. On 17 May 2019 the administration of oral PND began after which the patient received no other cancer medication. The veterinarian expected a survival length of between 4 and 6 months at the time of study entry. Patient received 20 mg/kg/day PND (325 mg in the morning and 650 mg in the evening).
Case 3, spindle cell sarcoma: Dog (Border Collie), male, 9 years old, 28.5 kg. In 2014 the dog was diagnosed with a low-grade spindle cell sarcoma, and was due to be euthanized on 11 Feb. 2019, with a life expectancy of 1-2 weeks. Instead, the veterinarian began the administration of oral PND on 11 Feb. 2019 after which patient received no other cancer medication. Patient received 15 mg/kg/day PND (215 mg in the morning and 215 mg in the evening).
Case 4, non-Hodgkin lymphoma: Dog (Boxer), female, 27 kg, 11 years old. Cancer was confirmed by biopsy report. In December 2018 the administration of oral PND to the dog began after which patient received no other cancer medication. Patient received 15 mg/kg/day PND (210 mg in the morning and 210 mg in the evening). However, the administration of PND stopped in February 2019 (due to shipping problems from the USA to Canada) and never resumed.
Case 5, mast cell tumor: Dog, male, 27.9 kg. Cancer was confirmed by histopathology report. A tumor was surgically excised from tongue, and there was no clean border. In December 2018 the administration of oral PND began after which the patient received no other cancer medication. Patient received 15 mg/kg/day PND (210 mg in the morning and 210 mg in the evening).

## COC1=CC=C2Nc3cc(Cl)ccc3C(N=C3C=C(CN4CCCC4)C(=O)C(CN4CCCC4)=C3)=C2N1 [PND, 4-[(7-chloro-2-methoxy-1,5-dihydrobenzo[b][1,5]naphthyridin-10-yl)imino]-2,6-bis(pyrrolidin-1-ylmethyl)cyclohexa-2,5-dien-1-one]
CEM cell line
  selectivity (SCI): poor selectivity
[1]; leukemia/lymphoma cells
  selectivity ratio at 72 h: 1.43 to 3.47
[1]; several breast cancer cells vs non-cancerous cells
  selectivity ratio at 72 h: > 2.5
[2]
  CC50: 1.6 to 9.4 µM
[3]; Case 1, mast cell carcinoma, 23 mg/kg/day oral
  study-drug related adverse events: no reports of any study-drug related adverse events
[3]; Case 1, as of June 2019, start mid-May 2019
  survival status: still alive
[3]; Case 2, osteosarcoma, 20 mg/kg/day oral, resolved with diphenhydramine
  possible study-drug related adverse events: drooling, facial swelling, and vomiting
[3]; Case 2, at June 2019, start 17 May 2019
  survival status: still alive
[3]; Case 3, spindle cell sarcoma, 15 mg/kg/day oral
  study-drug related adverse events: no reports of any study-drug related adverse events except initial vomiting
[3]; Case 3, life expectancy 1-2 weeks at entry
  survival lengthened by: 3 months
[3]; Case 3, three tumors
  reduction of volume of each tumor at follow-up: approximately 20%
[3]; Case 4
  survival lengthened by: 2.5 months
[3]; Case 4, non-Hodgkin lymphoma, 15 mg/kg/day oral
  study-drug related adverse events: no reports of any study-drug related adverse events
[3]; Case 4, neck tumor, by March 2019
  tumor shrinkage: 70%
[3]; Case 5, mast cell tumor, 15 mg/kg/day oral, 2 cm×1 cm versus 2 cm×1 cm
  tumor volume at follow-up: remained the same volume
[3]; Case 5, as of June 2019, start December 2018
  survival status: still alive
